In PMC12454493, “Insight on novel sulfamoylphenyl pyrazole derivatives as anticancer carbonic anhydrase inhibitors” (Molecular Diversity, 2024):
Several values for one entry are separate records, joined by “and”; a condition that tells them apart may be missing. Equal entries are not always repeated.

How the values were obtained:
CCRF-CEM = assay: NCI-60 one-dose SRB screen (Leukemia); format: cell-based; conditions: Homo sapiens, single dose 10 µM, 48 h, read-out: Growth inhibition percent (GI %)
HL-60(TB) = assay: NCI-60 one-dose SRB screen (Leukemia); format: cell-based; conditions: Homo sapiens, single dose 10 µM, 48 h, read-out: Growth inhibition percent (GI %)
K-562 = assay: NCI-60 one-dose SRB screen (Leukemia); format: cell-based; conditions: Homo sapiens, K562, single dose 10 µM, 48 h, read-out: Growth inhibition percent (GI %)
MOLT-4 = assay: NCI-60 one-dose SRB screen (Leukemia); format: cell-based; conditions: Homo sapiens, single dose 10 µM, 48 h, read-out: Growth inhibition percent (GI %)
RPMI-8226 = assay: NCI-60 one-dose SRB screen (Leukemia); format: cell-based; conditions: Homo sapiens, single dose 10 µM, 48 h, read-out: Growth inhibition percent (GI %)
SR = assay: NCI-60 one-dose SRB screen (Leukemia); format: cell-based; conditions: Homo sapiens, single dose 10 µM, 48 h, read-out: Growth inhibition percent (GI %)
A549/ATCC = assay: NCI-60 one-dose SRB screen (Non-Small Cell Lung Cancer); format: cell-based; conditions: Homo sapiens, single dose 10 µM, 48 h, read-out: Growth inhibition percent (GI %)
EKVX = assay: as above; format: cell-based; conditions: Homo sapiens, single dose 10 µM, 48 h, read-out: Growth inhibition percent (GI %)
HOP-62 = assay: as above; format: cell-based; conditions: Homo sapiens, single dose 10 µM, 48 h, read-out: Growth inhibition percent (GI %)
HOP-92 = assay: as above; format: cell-based; conditions: Homo sapiens, single dose 10 µM, 48 h, read-out: Growth inhibition percent (GI %)
NCI-H226 = assay: as above; format: cell-based; conditions: Homo sapiens, single dose 10 µM, 48 h, read-out: Growth inhibition percent (GI %)
NCI-H23 = assay: as above; format: cell-based; conditions: Homo sapiens, single dose 10 µM, 48 h, read-out: Growth inhibition percent (GI %)
NCI-H322M = assay: as above; format: cell-based; conditions: Homo sapiens, single dose 10 µM, 48 h, read-out: Growth inhibition percent (GI %)
NCI-H460 = assay: as above; format: cell-based; conditions: Homo sapiens, single dose 10 µM, 48 h, read-out: Growth inhibition percent (GI %)
NCI-H522 = assay: as above; format: cell-based; conditions: Homo sapiens, single dose 10 µM, 48 h, read-out: Growth inhibition percent (GI %)
COLO 205 = assay: NCI-60 one-dose SRB screen (Colon Cancer); format: cell-based; conditions: Homo sapiens, single dose 10 µM, 48 h, read-out: Growth inhibition percent (GI %)
HCC-2998 = assay: NCI-60 one-dose SRB screen (Colon Cancer); format: cell-based; conditions: Homo sapiens, single dose 10 µM, 48 h, read-out: Growth inhibition percent (GI %)
HCT-116 = assay: NCI-60 one-dose SRB screen (Colon Cancer); format: cell-based; conditions: Homo sapiens, single dose 10 µM, 48 h, read-out: Growth inhibition percent (GI %)
HCT-15 = assay: NCI-60 one-dose SRB screen (Colon Cancer); format: cell-based; conditions: Homo sapiens, single dose 10 µM, 48 h, read-out: Growth inhibition percent (GI %)
HT29 = assay: NCI-60 one-dose SRB screen (Colon Cancer); format: cell-based; conditions: Homo sapiens, HT-29, single dose 10 µM, 48 h, read-out: Growth inhibition percent (GI %)
KM12 = assay: NCI-60 one-dose SRB screen (Colon Cancer); format: cell-based; conditions: Homo sapiens, single dose 10 µM, 48 h, read-out: Growth inhibition percent (GI %)
SW-620 = assay: NCI-60 one-dose SRB screen (Colon Cancer); format: cell-based; conditions: Homo sapiens, single dose 10 µM, 48 h, read-out: Growth inhibition percent (GI %)
SF-268 = assay: NCI-60 one-dose SRB screen (CNS Cancer); format: cell-based; conditions: Homo sapiens, single dose 10 µM, 48 h, read-out: Growth inhibition percent (GI %)
SF-295 = assay: NCI-60 one-dose SRB screen (CNS Cancer); format: cell-based; conditions: Homo sapiens, single dose 10 µM, 48 h, read-out: Growth inhibition percent (GI %)
SF-539 = assay: NCI-60 one-dose SRB screen (CNS Cancer); format: cell-based; conditions: Homo sapiens, single dose 10 µM, 48 h, read-out: Growth inhibition percent (GI %)
SNB-19 = assay: NCI-60 one-dose SRB screen (CNS Cancer); format: cell-based; conditions: Homo sapiens, single dose 10 µM, 48 h, read-out: Growth inhibition percent (GI %)
SNB-75 = assay: NCI-60 one-dose SRB screen (CNS Cancer); format: cell-based; conditions: Homo sapiens, single dose 10 µM, 48 h, read-out: Growth inhibition percent (GI %)
U251 = assay: NCI-60 one-dose SRB screen (CNS Cancer); format: cell-based; conditions: Homo sapiens, U-251, single dose 10 µM, 48 h, read-out: Growth inhibition percent (GI %)
M14 = assay: NCI-60 one-dose SRB screen (Melanoma); format: cell-based; conditions: Homo sapiens, single dose 10 µM, 48 h, read-out: Growth inhibition percent (GI %)
MALME-3M = assay: NCI-60 one-dose SRB screen (Melanoma); format: cell-based; conditions: Homo sapiens, single dose 10 µM, 48 h, read-out: Growth inhibition percent (GI %)
SK-MEL-28 = assay: NCI-60 one-dose SRB screen (Melanoma); format: cell-based; conditions: Homo sapiens, single dose 10 µM, 48 h, read-out: Growth inhibition percent (GI %)
SK-MEL-2 = assay: NCI-60 one-dose SRB screen (Melanoma); format: cell-based; conditions: Homo sapiens, single dose 10 µM, 48 h, read-out: Growth inhibition percent (GI %)
SK-MEL-5 = assay: NCI-60 one-dose SRB screen (Melanoma); format: cell-based; conditions: Homo sapiens, single dose 10 µM, 48 h, read-out: Growth inhibition percent (GI %)
UACC-257 = assay: NCI-60 one-dose SRB screen (Melanoma); format: cell-based; conditions: Homo sapiens, single dose 10 µM, 48 h, read-out: Growth inhibition percent (GI %)
UACC-62 = assay: NCI-60 one-dose SRB screen (Melanoma); format: cell-based; conditions: Homo sapiens, single dose 10 µM, 48 h, read-out: Growth inhibition percent (GI %)
786-0 = assay: NCI-60 one-dose SRB screen (Renal Cancer); format: cell-based; conditions: Homo sapiens, single dose 10 µM, 48 h, read-out: Growth inhibition percent (GI %)
A498 = assay: NCI-60 one-dose SRB screen (Renal Cancer); format: cell-based; conditions: Homo sapiens, single dose 10 µM, 48 h, read-out: Growth inhibition percent (GI %)
ACHN = assay: NCI-60 one-dose SRB screen (Renal Cancer); format: cell-based; conditions: Homo sapiens, single dose 10 µM, 48 h, read-out: Growth inhibition percent (GI %)
CAKI-1 = assay: NCI-60 one-dose SRB screen (Renal Cancer); format: cell-based; conditions: Homo sapiens, single dose 10 µM, 48 h, read-out: Growth inhibition percent (GI %)
RXF 393 = assay: NCI-60 one-dose SRB screen (Renal Cancer); format: cell-based; conditions: Homo sapiens, single dose 10 µM, 48 h, read-out: Growth inhibition percent (GI %)
SN12C = assay: NCI-60 one-dose SRB screen (Renal Cancer); format: cell-based; conditions: Homo sapiens, single dose 10 µM, 48 h, read-out: Growth inhibition percent (GI %)
TK-10 = assay: NCI-60 one-dose SRB screen (Renal Cancer); format: cell-based; conditions: Homo sapiens, single dose 10 µM, 48 h, read-out: Growth inhibition percent (GI %)
UO-31 = assay: NCI-60 one-dose SRB screen (Renal Cancer); format: cell-based; conditions: Homo sapiens, single dose 10 µM, 48 h, read-out: Growth inhibition percent (GI %)
DU-145 = assay: NCI-60 one-dose SRB screen (Prostate Cancer); format: cell-based; conditions: Homo sapiens, single dose 10 µM, 48 h, read-out: Growth inhibition percent (GI %)
PC-3 = assay: NCI-60 one-dose SRB screen (Prostate Cancer); format: cell-based; conditions: Homo sapiens, single dose 10 µM, 48 h, read-out: Growth inhibition percent (GI %)
hCA IX = hCA IX (Homo sapiens, UniProt Q16790); assay: CA inhibitory activity, spectrophotometric p-NPA assay; format: biochemical; conditions: p-NPA substrate, pH 7.5, 25 °C, triplicate; read-out: IC50 (µM) ± SD hCA IX
Method: The software used to calculate CA IC50 along with statistical analysis of the results is GraphPad Prism 9.00. Results were estimated by using one-way ANOVA and the Bonferroni’s multiple comparisons posthoc test was performed (P < 0.05) [46]
Carbonic anhydrase inhibitory activity:
The spectrophotometric assay was conducted in HEPES-Tris buffer, NaCl of pH 7.5 (20mM) at 25◦C. Each inhibitory well-consisted of 50 μL of assay buffer solution, 20 μL of hCA enzyme solution (20 ng/μL in Assay Buffer), and 50 μL of test compound in HPLC grade DMSO (maintain 10% of the final concentration). The mixture solution was
Substrate p-nitrophenyl acetate (p-NPA) (0.7mM) was prepared in HPLC grade methanol and the reaction was started by adding 20 μL to a well in a 96-well-plate. The amount of product formed was measured for 30 min continuously at 1 min intervals at 400 nm in a 96-well-plate using xMARK microplate spectrophotometer, Bio-Rad (USA). The activity of the controlled compound was taken as 100%. All experiments were carried out in triplicates of each used concentration, and results are represented as a

hCA XII = hCA XII (Homo sapiens, UniProt O43570); assay: as above; format: biochemical; conditions: p-NPA substrate, pH 7.5, 25 °C, triplicate; read-out: IC50 (µM) ± SD hCA XII
Chain of hCA XII (O43570 25-354): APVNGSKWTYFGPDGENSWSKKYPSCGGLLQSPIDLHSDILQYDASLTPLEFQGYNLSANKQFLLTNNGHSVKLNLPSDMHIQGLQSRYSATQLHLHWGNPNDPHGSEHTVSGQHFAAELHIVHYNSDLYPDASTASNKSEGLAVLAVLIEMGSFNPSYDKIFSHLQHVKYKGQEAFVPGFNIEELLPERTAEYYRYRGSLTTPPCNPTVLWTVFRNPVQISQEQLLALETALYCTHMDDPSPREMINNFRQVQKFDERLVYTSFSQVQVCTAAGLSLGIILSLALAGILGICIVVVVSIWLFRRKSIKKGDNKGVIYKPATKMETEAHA

Compound: CCOC(=O)c1ccc(NC(=O)COC(=O)c2cn(-c3ccc(S(N)(=O)=O)cc3)nc2-c2ccc(OC)cc2)cc1 [Compound 5c, 2-[(4-(Ethoxycarbonyl)phenyl)amino]-2-oxoethyl 3-(4-methoxyphenyl)-1-(4-sulfamoylphenyl)-1H-pyrazole-4-carboxylate]
- inhibition at 10 µM (CCRF-CEM): 62.6%
- inhibition at 10 µM (HL-60(TB)): 48.4%
- inhibition at 10 µM (K-562): 61.7%
- inhibition at 10 µM (MOLT-4): 65.9%
- inhibition at 10 µM (RPMI-8226): 58.6%
- inhibition at 10 µM (SR): 64.6%
- inhibition at 10 µM (A549/ATCC): 39.4%
- inhibition at 10 µM (EKVX): 42.2%
- inhibition at 10 µM (HOP-62): 12%
- inhibition at 10 µM (HOP-92): 26%
- inhibition at 10 µM (NCI-H226): 26.7%
- inhibition at 10 µM (NCI-H23): 17.5%
- inhibition at 10 µM (NCI-H322M): 9.97%
- inhibition at 10 µM (NCI-H460): 28.8%
- inhibition at 10 µM (NCI-H522): 31%
- inhibition at 10 µM (COLO 205): 25.1%
- inhibition at 10 µM (HCC-2998): < 5%
- inhibition at 10 µM (HCT-116): 35.2%
- inhibition at 10 µM (HCT-15): 48.5%
- inhibition at 10 µM (HT29): 17.3%
- inhibition at 10 µM (KM12): 26.2%
- inhibition at 10 µM (SW-620): 7.9%
- inhibition at 10 µM (SF-268): 28.5%
- inhibition at 10 µM (SF-295): 32.7%
- inhibition at 10 µM (SF-539): 38.7%
- inhibition at 10 µM (SNB-19): 30.7%
- inhibition at 10 µM (SNB-75): 49.3%
- inhibition at 10 µM (U251): 34.3%
- inhibition at 10 µM (M14): 40.3%
- inhibition at 10 µM (MALME-3M): 21%
- inhibition at 10 µM (SK-MEL-28): 24.6%
- inhibition at 10 µM (SK-MEL-2): 23.1%
- inhibition at 10 µM (SK-MEL-5): 34.9%
- inhibition at 10 µM (UACC-257): 25.4%
- inhibition at 10 µM (UACC-62): 44.5%
- inhibition at 10 µM (786-0): 53.1%
- inhibition at 10 µM (A498): 23.2%
- inhibition at 10 µM (ACHN): 21.3%
- inhibition at 10 µM (CAKI-1): 55.6%
- inhibition at 10 µM (RXF 393): 55.3%
- inhibition at 10 µM (SN12C): 21.3%
- inhibition at 10 µM (TK-10): 23.8%
- inhibition at 10 µM (UO-31): 38.5%
- inhibition at 10 µM (DU-145): 14.7%
- inhibition at 10 µM (PC-3): 50.9%
- IC50 (hCA IX): 0.22 ± 0.01 µM
- IC50 (hCA XII): 0.27 µM and 0.272 µM

Compound: CCOC(=O)c1ccc(NC(=O)COC(=O)c2cn(-c3ccc(S(N)(=O)=O)cc3)nc2-c2ccc(Br)cc2)cc1 [Compound 5d, 2-[(4-(Ethoxycarbonyl)phenyl)amino]-2-oxoethyl 3-(4-bromophenyl)-1-(4-sulfamoylphenyl)-1H-pyrazole-4-carboxylate]
- inhibition at 10 µM (CCRF-CEM): 85.8%
- inhibition at 10 µM (HL-60(TB)): 89.4%
- inhibition at 10 µM (K-562): 80.4%
- inhibition at 10 µM (MOLT-4): 94%
- inhibition at 10 µM (RPMI-8226): 80.3%
- inhibition at 10 µM (SR): 80.1%
- inhibition at 10 µM (A549/ATCC): 62.9%
- inhibition at 10 µM (EKVX): 62.5%
- inhibition at 10 µM (HOP-62): 26.2%
- inhibition at 10 µM (HOP-92): 72.1%
- inhibition at 10 µM (NCI-H226): 48.3%
- inhibition at 10 µM (NCI-H23): 49.4%
- inhibition at 10 µM (NCI-H322M): 21.2%
- inhibition at 10 µM (NCI-H460): 65.7%
- inhibition at 10 µM (NCI-H522): 64.9%
- inhibition at 10 µM (COLO 205): 61.2%
- inhibition at 10 µM (HCC-2998): 54.3%
- inhibition at 10 µM (HCT-116): 73.6%
- inhibition at 10 µM (HCT-15): 76.4%
- inhibition at 10 µM (HT29): 88.3%
- inhibition at 10 µM (KM12): 76.7%
- inhibition at 10 µM (SW-620): 50.6%
- inhibition at 10 µM (SF-268): 64.1%
- inhibition at 10 µM (SF-295): 57.5%
- inhibition at 10 µM (SF-539): 63.3%
- inhibition at 10 µM (SNB-19): 57.9%
- inhibition at 10 µM (SNB-75): 74.9%
- inhibition at 10 µM (U251): 57.9%
- inhibition at 10 µM (M14): 73.7%
- inhibition at 10 µM (MALME-3M): 46.1%
- inhibition at 10 µM (SK-MEL-28): 55.6%
- inhibition at 10 µM (SK-MEL-2): 49.1%
- inhibition at 10 µM (SK-MEL-5): 36.3%
- inhibition at 10 µM (UACC-257): 38.3%
- inhibition at 10 µM (UACC-62): 58.7%
- inhibition at 10 µM (786-0): 74.9%
- inhibition at 10 µM (A498): 20.6%
- inhibition at 10 µM (ACHN): 66%
- inhibition at 10 µM (CAKI-1): 81.9%
- inhibition at 10 µM (RXF 393): 82.8%
- inhibition at 10 µM (SN12C): 47.1%
- inhibition at 10 µM (TK-10): 18.4%
- inhibition at 10 µM (UO-31): 58.9%
- inhibition at 10 µM (DU-145): 45.8%
- inhibition at 10 µM (PC-3): 78.8%
- IC50 (hCA IX): 0.631 ± 0.029 µM
- IC50 (hCA XII): 0.99 ± 0.037 µM
